We go through two substances from patent publication US20100016232A1, “Treatment Of Inflammatory Diseases With Mammal Beta Defensins” (Novozymes A/S, priority 2008, published 2010).

The subject of data set [1] is IL-1β production from human peripheral blood mononuclear cells (PBMC). The data set is described as follows: IL-1β production from human PBMC, Cytometric Bead Array. Type of data set: cell-based. Particulars: Table 18. How it is done: (§1) Peripheral blood was drawn from healthy volunteers (with approval from the relevant ethical committee in Denmark). Heparinized blood was diluted 1/1 v/v with RPMI and were subjected to Ficoll density centrifugation within 2 h of drawing. Plasma was collected from the top from individual donors and was kept on ice until it was used at 2% in the culture medium (autologous culture medium). Isolated PBMC were resuspended in autologous culture medium and seeded in 96-well culture plates with 255.000 cells per well in a total of 200 μl. […] The concentrations used for stimulation were optimized on 3 different donors in initial experiments, for LPS two different concentrations were used to be sure to be on a cytokine level that is possible to modulate. In some experiments PBMC were treated with Dexamethason and Indomethacin alone and together with LPS or LTA as a control on downregulation of inflammatory cytokines. The supernatants were collected after incubation at 37° C. for 24 hours, and stored at −80° C. until cytokine measurement. Viability was measured by Alamar Blue (Biosource, DALL 1100) in all experiments and in some cases also by MTS (Promega) according to manufacturer's instruction and was in some experiments also judged by counting of the cells by a Nucleocounter.
(§2) Cytokine production in supernatants was measured by flow cytometry with a human inflammation cytometric bead array (CBA) according to manufacturer's instructions (BD) on a FACSarray flow cytometer. The following cytokines were measured: IL-8, IL-1β, IL-10, TNF, IL-12 p70, IL-6. In some experiments, cytokines were measured by ELISA kits from R&D systems (IL-10, TNF-α, IL-1β) according to the manufacturer' instruction.

The test system of data set [2] is IL-10 production from human peripheral blood mononuclear cells (PBMC). The data set is described as follows: IL-10 production from human PBMC, Cytometric Bead Array. The data set is classed as cell-based. The conditions noted are these: Table 17. How it is done: as §1, §2
For data set [3], the system named is PBMC. The data set is described as follows: PBMC viability, Alamar Blue. The data set is classed as cell-based, human. Particulars: human PBMC, Example 2. On the procedure: as §1
Data set [4] concerns TNF production from human peripheral blood mononuclear cells (PBMC). The data set is described as follows: TNF production from human PBMC, Cytometric Bead Array. The data set is classed as cell-based. The conditions noted are these: Table 16. On the procedure:
as §1, §2

[5] abbreviates: LPS 0.6 ng/ml, test compound 1 μg/ml.
[6] abbreviates: LPS 20 ng/ml, test compound 1 μg/ml.
Setting [7] is: LPS 0.6 ng/ml, test compound 10 μg/ml.
Where [8] appears, read: LPS 20 ng/ml, test compound 10 μg/ml.

Where no end group is shown, it is not given here.

Take “hBD3: human beta defensin 3, SEQ ID NO:3; prepared using chemical synthesis, Peptide Institute Inc. (GIINTLQKYYCRVRGGRCAVLSCLPKEEQTGKCSTRGRKCCRRKK; ends and bridges not checked; cysteine pairing not given here; listed as Homo sapiens)”: the IL-1β in data set [1] (setting [5]) amounted to 331 pg/mL; in data set [1] (setting [6]), 568 pg/mL; in data set [1] (Medium, test compound 1 μg/ml), 0 pg/mL. Further, the “IL-1β % of control” value came to 45% in data set [1] (setting [5]) and 22% in data set [1] (setting [6]). Besides, the IL-10 was 71 pg/mL in data set [2] (setting [5]) and 0 pg/mL in data set [2] (Medium, test compound 1 μg/ml). The “IL-10 % of control” value in data set [2] (setting [5]) is 107%; in data set [2] (setting [6]), 137%. In data set [3] (10 μg/ml and 40 μg/ml), the “toxicity to the cells” value was “toxic to the cells”. Further, the TNF in data set [4] (setting [5]) was found to be 528 pg/mL; in data set [4] (setting [6]) it was 451 pg/mL; in data set [4] (Medium, test compound 1 μg/ml), 0 pg/mL. In addition, the “TNF % of control” value was found to be 73% in data set [4] (setting [5]) and 21% in data set [4] (setting [6]).
For “hBD4 variant: consists of amino acids 3-39 of hBD4, SEQ ID NO:5; prepared using chemical synthesis (ELDRICGYGTARCRKKCRSQEYRIGRCPNTYACCLRK; hBD-4 variant consisting of amino acids 3-39 of SEQ ID NO4)”, the IL-1β worked out at 286 pg/mL in data set [1] (setting [5]); 163 pg/mL in data set [1] (setting [7]); 1004 pg/mL in data set [1] (setting [6]); 463 pg/mL in data set [1] (setting [8]); 0 pg/mL in data set [1] (Medium, test compound 1 μg/ml); 0 pg/mL in data set [1] (Medium, test compound 10 μg/ml). In addition, the “IL-1β % of control” value came to 39% in data set [1] (setting [5]), 22% in data set [1] (setting [7]), 40% in data set [1] (setting [6]) and 18% in data set [1] (setting [8]). Besides, the IL-10 stood at 90 pg/mL in data set [2] (setting [5]); 92 pg/mL in data set [2] (setting [7]); 187 pg/mL in data set [2] (setting [8]); 0 pg/mL in data set [2] (Medium, test compound 1 μg/ml); 0 pg/mL in data set [2] (Medium, test compound 10 μg/ml). Further, the “IL-10 % of control” value was 136% in data set [2] (setting [5]), 139% in data set [2] (setting [7]), 157% in data set [2] (setting [6]) and 168% in data set [2] (setting [8]). The “toxicity to the cells” value in data set [3] (40 μg/ml) is reported as “toxic to the cells”. The TNF in data set [4] (setting [5]) stood at 468 pg/mL; in data set [4] (setting [7]) it was 211 pg/mL; in data set [4] (setting [6]), 778 pg/mL; in data set [4] (setting [8]) it was 139 pg/mL; in data set [4] (Medium, test compound 1 μg/ml) it was 0 pg/mL; in data set [4] (Medium, test compound 10 μg/ml) it was 0 pg/mL. For the same substance, the “TNF % of control” value is reported as 64% in data set [4] (setting [5]), 29% in data set [4] (setting [7]), 36% in data set [4] (setting [6]) and 6% in data set [4] (setting [8]).
